Assays:
[1] = system: CFPAC-1 (human pancreatic cancer cells); test: Inhibition of cell line proliferation, CCK8; type: cell-based; conditions: CFPAC-1, 68-72 hours, CCK8
Description: Experimental operations: PANC-1 and CFPAC-1 cells were prepared in advance, counted, and plated in 96-well cell culture plates at a cell density of 4×10^4 cells/ml (100 μl/well); negative control and blank control wells were set on each plate. After adherent cell culture overnight, the diluted samples to be tested were added at 50 μl/well. The plates were placed in an incubator at 37° C., 5% CO2 and cultured for 68-72 hours. To each well, 15 μl (10% of the liquid volume in a well) of a color developing solution from CCK8 was added; and the plates were incubated at 37° C. for 45-70 minutes and each plate was read at 450 nm on a microplate reader. The data was edited using SoftMax Pro and a 4-P fitting curve was plotted.
(§1) Experimental operations: LNCaP, SK-BR-3, NCI-H226, CFPAC-1 and PANC-1 cells were prepared in advance and counted; with a culture medium (IMDM+10% FBS+1× L-Glutamine+1×P/S), the cells LNCaP, SK-BR-3 and CFPAC-1 were diluted to 4×10^4 cells/ml, NCI-H226 was diluted to 2.0×10^4 cells/ml and PANC-1 was diluted to 3.0×10^4 cells/ml; the diluted cell solution was plated in 96-well plates at 100 μl/well; and negative control and blank control wells were set on each plate. After adherent cell culture overnight, the diluted samples to be tested were added at 50 μl/well. The plates were placed in an incubator at 37° C., 5% CO2 and cultured for 68-72 hours. To each well, 15 μl (10% of the liquid volume in a well) of a color developing solution from CCK8 was added; and the plates were incubated at 37° C. for 45-70 minutes and each plate was read at 450 nm on a microplate reader. The data was edited using SoftMax Pro and a 4-P fitting curve was plotted.
(§2) Experimental Operations: LNCaP, SK-BR-3, MDA-MB-468 and CFPAC-1 cells were prepared in advance and counted; with a culture medium (IMDM+10% FBS+1× L-Glutamine+1×P/S), the cells LNCaP, SK-BR-3, MDA-MB-468 and CFPAC-1 were diluted to 4×10^4 cells/ml; the diluted cell solution was plated in 96-well plates at 100 µl/well; and negative control and blank control wells were set on each plate. After adherent cell culture overnight, the diluted samples to be tested were added at 50 μl/well. The plates were placed in an incubator at 37° C., 5% CO2 and cultured for 68-72 hours. To each well, 15 μl (10% of the liquid volume in a well) of a color developing solution from CCK8 was added; and the plates were incubated at 37° C. for 45-70 minutes and each plate was read at 450 nm on a microplate reader. The data was edited using SoftMax Pro and a 4-P fitting curve was plotted.
as §2, with “Operations: LNCaP, MDA-MB-468, CFPAC-1 and PANC-1” for “Operations: LNCaP, SK-BR-3, MDA-MB-468 and CFPAC-1”, “CFPAC-1 and PANC-1 cells were” for “MDA-MB-468 and CFPAC-1 cells were”, “cells LNCaP, MDA-MB-468 and” for “cells LNCaP, SK-BR-3, MDA-MB-468 and”, “to 4×10^4 cells/ml, and PANC-1 was diluted to 3.0×10^4 cells/ml; the” for “to 4×10^4 cells/ml; the”, “at 100 μl/well; and negative” for “at 100 µl/well; and negative”
Experimental operations: NCI-H226, CFPAC-1 and MDA-MB-468 cells were prepared in advance and counted; MDA-MB-468 and CFPAC-1 cells were plated at a density of 2×10^4 cells/ml (100 μl/well) and NCI-H226 cells were plated at a density of 1×10^4 cells/ml (100 μl/well) in 96-well plates; and negative control and blank control wells were set on each plate. After adherent cell culture overnight, the diluted samples to be tested were added at 50 μl/well. The plates were placed in an incubator at 37° C., 5% CO2 and cultured for 68-72 hours. […]

[2] = system: MDA-MB-468 (human breast cancer cells); test: Inhibition of cell line proliferation, CCK8; type: cell-based; conditions: MDA-MB-468, 68-72 hours, CCK8
Description: as §2
as §2, with “Operations: LNCaP, MDA-MB-468, CFPAC-1 and PANC-1” for “Operations: LNCaP, SK-BR-3, MDA-MB-468 and CFPAC-1”, “CFPAC-1 and PANC-1 cells were” for “MDA-MB-468 and CFPAC-1 cells were”, “cells LNCaP, MDA-MB-468 and” for “cells LNCaP, SK-BR-3, MDA-MB-468 and”, “to 4×10^4 cells/ml, and PANC-1 was diluted to 3.0×10^4 cells/ml; the” for “to 4×10^4 cells/ml; the”, “at 100 μl/well; and negative” for “at 100 µl/well; and negative”
(§3) Experimental operations: NCI-H226, CFPAC-1 and MDA-MB-468 cells were prepared in advance and counted; MDA-MB-468 and CFPAC-1 cells were plated at a density of 2×10^4 cells/ml (100 μl/well) and NCI-H226 cells were plated at a density of 1×10^4 cells/ml (100 μl/well) in 96-well plates; and negative control and blank control wells were set on each plate. After adherent cell culture overnight, the diluted samples to be tested were added at 50 μl/well. The plates were placed in an incubator at 37° C., 5% CO2 and cultured for 68-72 hours. To each well, 15 μl (10% of the liquid volume in a well) of a color developing solution from CCK8 was added; and the plates were incubated at 37° C. for 45-70 minutes and each plate was read at 450 nm on a microplate reader. The data was edited using SoftMax Pro and a 4-P fitting curve was plotted.

[3] = system: NCI-H226 (human lung cancer cells); test: Inhibition of cell line proliferation, CCK8; type: cell-based; conditions: NCI-H226, 68-72 hours, CCK8
Description: as §1, §3

[4] = system: CALU-3; test: Tumor growth inhibition of CR19428 in subcutaneous xenograft model (CDX); type: in vivo, BALB/c-nude mice
Description: (§4) Experimental scheme: The tumor tissue mass were prepared and subcutaneously inoculated into the anterior right flank of BALB/c-nude mice. When the tumor volume expanded to 80-160 mm^3, a randomized grouping was performed, and a model control group and administration groups were set. The mice were administrated from the first day of grouping, wherein the administration dose was adjusted according to the latest weight measurement. The mice were administrated via tail vein injection at an administration volume of 10 μl/g and twice a week for consecutive 3 weeks. After grouping and administration, the effects of tumor growth and treatment on normal behaviors of animals, specifically including the activity of experimental animals, food intake and drinking status, weight gain or loss status, and other abnormal conditions in eyes, hair, etc., were monitored. After grouping and administration, the weight of mice was measured twice a week to calculate the rate of weight change; at the same time, the long diameter and short diameter of the tumor were measured with a vernier caliper, and the tumor volume, relative tumor proliferation rate, tumor volume inhibition rate and other indicators were calculated. The formula of tumor volume is TV=0.5 a×b^2, wherein a is the long diameter of a tumor and b is the short diameter of a tumor.

[5] = system: SCLC-21H; test: as above; type: in vivo, BALB/c-nude mice
Description: as §4

[6] = system: SPC-A1; test: as above; type: in vivo, BALB/c-nude mice; conditions: for TGI: SPC-Al
Description: as §4

[7] = system: LNCaP human prostate cancer cells; test: Cell binding and endocytosis by flow cytometry; type: cell-based; conditions: 8 nmol/L, 37° C., 15-90 minutes, compared with DU145 and NCI-H460
Description: (§5) Sample information: Cy5-pep-20AK and Cy5-pep-20BK Cell lines: LNCaP human prostate cancer cells, Du145 human prostate cancer cells, SKOV3 human ovarian cancer cells and NCI-H460 human lung cancer cells
(§6) (1) Cell culture: the cells were digested with trypsin, collected and counted, and then the cells were added to several culture flasks containing a complete medium; the culture flasks were placed in an incubator at 37° C., 5% CO2 for culturing the cells, and finally about 5×10^6 cells were collected into a centrifuge tube. […]
(§7) (3) Washing and loading: the working solution was removed by centrifugation at 1000 rpm for 5 minutes, and the cells were washed 3 times with PBS, and an appropriate amount of PBS was added to suspend the cells to 1×10^6 cells/ml; Beckman CytoFLEX flow cytometer was turned on in advance to complete the startup cleaning process; and the cell samples were loaded successively, and the fluorescence of 10,000 living cells was read in the APC channel; all operations were performed avoiding light exposure.
(§8) (4) Data analysis: the absolute MFI (mean fluorescence intensity) of the APC fluorescence of each cell sample and the relative MFI of the relative blank control were obtained, and a data line graph was completed according to the relative MFI.

[8] = system: SKOV3 human ovarian cancer cells; test: Cell binding and endocytosis by flow cytometry; type: cell-based; conditions: 8 nmol/L, 37° C., 15-90 minutes, compared with DU145 and NCI-H460
Description: as §5, §6, §7, §8

Row | SMILES | IC50 [1] | IC50 [2] | IC50 [3] | TGI ([4]; CALU-3, 50 mg/kg q2/w * 3) | anti-tumor growth effect (in words) ([4]; CALU-3 CDX) | anti-tumor growth effect (in words) ([5]; SCLC-21H CDX) | TGI ([5]; SCLC-21H, 50 mg/kg q2/w * 3) | anti-tumor growth effect (in words) ([6]; SPC-A1 CDX) | TGI ([6]; 50 mg/kg q2/w * 3) | TGI ([6]; 100 mg/kg q2/w * 3) | binding and endocytosis (fluorescence intensity) [7] | binding and endocytosis (fluorescence intensity) [8]
1 | CC[C@@]1(O)C(=O)OCc2c1cc1n(c2=O)Cc2c-1nc1cc(F)c(C)c3c1c2[C@@H](NC(=O)COCNC(=O)CNC(=O)[C@H](Cc1ccccc1)NC(=O)CNC(=O)CNC(=O)CCCCCN1C(=O)CC(SC[C@H](NC(=O)[C@H](CCCCN)NC(=O)[C@H](CC(=O)O)NC(=O)[C@H](CC(=O)O)NC(=O)Cc2ccc(CNC(=O)NCCCC[C@H](NC(=O)N[C@@H](CCC(=O)O)C(=O)O)C(=O)O)cc2)C(=O)N[C@@H](CCCCNC(=O)CC[C@H](NC(=O)c2ccc(NCc4cnc5[nH]c(N)nc(=O)c5n4)cc2)C(=O)O)C(N)=O)C1=O)CC3 (stereo partly drawn) [CR19428] | 906 nM | 1070 nM | 1620 nM | 51% | obvious anti-tumor growth effect | obvious anti-tumor growth effect | 66% | obvious anti-tumor growth effect | 75% | 91% |  | 
2 | CC1(C)C(/C=C/C=C/C=C2\N(CCCCCC(=O)NCCCCC(NC(=O)[C@H](CCCCN)NC(=O)[C@H](CC(=O)O)NC(=O)[C@H](CC(=O)O)NC(=O)Cc3ccc(CNC(=O)NCCCC[C@H](NC(=O)N[C@@H](CCC(=O)O)C(=O)O)C(=O)O)cc3)C(N)=O)c3ccc(S(=O)(=O)[O-])cc3C2(C)C)=[N+](CCCS(=O)(=O)O)c2ccc(S(=O)(=O)O)cc21 (stereo partly drawn) [Cy5-pep-20AK] |  |  |  |  |  |  |  |  |  |  | high level of binding and endocytosis | moderate level of binding and endocytosis
